In the kinase profiling compilation of Christmann-Franck et al. (2016):

Assays:
Test in all cases: KINOMEscan competition binding
Conditions in all cases: compound 10.0 µM
[1] = test system: BMX (human), P51813 [V600E]
[2] = test system: RET (human), P07949 [V804L]
[3] = test system: ABL1 (human), P00519 [F317I]
[4] = test system: ABL1 (human), P00519 [F317L]
[5] = test system: FLT3 (human), P36888 [D835Y]
[6] = test system: FGFR3 (human), P22607 [G697C]
[7] = test system: EGFR (human), P00533 [A750P; 747-749 del]
[8] = test system: EGFR (human), P00533 [G719C]
[9] = test system: EGFR (human), P00533 [L858R]
[10] = test system: PIK3CA (human), P42336 [E542K]
[11] = test system: PIK3CA (human), P42336 [H1047L]
[12] = test system: MET (human), P08581 [M1250T]
[13] = test system: KIT (human), P10721 [D816H]
[14] = test system: PIK3CA (human), P42336 [M1043I]
[15] = test system: KIT (human), P10721 [A829P]
[16] = test system: LRRK2 (human), Q5S007 [G2019S]

Chain of FGFR3 (human), P22607 [G697C] (P22607 whole entry G697C, looked up): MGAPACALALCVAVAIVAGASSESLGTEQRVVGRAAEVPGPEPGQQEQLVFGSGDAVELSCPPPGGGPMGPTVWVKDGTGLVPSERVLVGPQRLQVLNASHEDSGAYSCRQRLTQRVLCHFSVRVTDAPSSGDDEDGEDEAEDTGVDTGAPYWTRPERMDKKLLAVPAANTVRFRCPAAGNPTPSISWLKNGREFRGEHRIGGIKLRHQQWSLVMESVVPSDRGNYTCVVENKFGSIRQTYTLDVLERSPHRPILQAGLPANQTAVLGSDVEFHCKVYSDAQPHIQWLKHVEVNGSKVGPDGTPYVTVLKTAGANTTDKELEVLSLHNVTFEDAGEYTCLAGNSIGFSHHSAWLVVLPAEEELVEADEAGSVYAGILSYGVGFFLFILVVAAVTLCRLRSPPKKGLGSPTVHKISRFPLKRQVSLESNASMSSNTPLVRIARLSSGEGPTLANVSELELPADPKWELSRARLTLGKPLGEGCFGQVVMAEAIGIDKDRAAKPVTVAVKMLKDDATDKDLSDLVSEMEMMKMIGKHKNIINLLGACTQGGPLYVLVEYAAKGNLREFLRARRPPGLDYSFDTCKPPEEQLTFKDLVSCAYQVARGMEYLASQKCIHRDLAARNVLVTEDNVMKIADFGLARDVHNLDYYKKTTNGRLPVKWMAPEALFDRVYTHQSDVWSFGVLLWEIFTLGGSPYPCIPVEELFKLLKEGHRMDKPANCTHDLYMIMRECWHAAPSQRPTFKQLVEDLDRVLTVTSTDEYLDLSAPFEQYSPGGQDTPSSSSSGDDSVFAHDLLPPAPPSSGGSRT
Chain of KIT (human), P10721 [D816H] (P10721 whole entry D816H, looked up): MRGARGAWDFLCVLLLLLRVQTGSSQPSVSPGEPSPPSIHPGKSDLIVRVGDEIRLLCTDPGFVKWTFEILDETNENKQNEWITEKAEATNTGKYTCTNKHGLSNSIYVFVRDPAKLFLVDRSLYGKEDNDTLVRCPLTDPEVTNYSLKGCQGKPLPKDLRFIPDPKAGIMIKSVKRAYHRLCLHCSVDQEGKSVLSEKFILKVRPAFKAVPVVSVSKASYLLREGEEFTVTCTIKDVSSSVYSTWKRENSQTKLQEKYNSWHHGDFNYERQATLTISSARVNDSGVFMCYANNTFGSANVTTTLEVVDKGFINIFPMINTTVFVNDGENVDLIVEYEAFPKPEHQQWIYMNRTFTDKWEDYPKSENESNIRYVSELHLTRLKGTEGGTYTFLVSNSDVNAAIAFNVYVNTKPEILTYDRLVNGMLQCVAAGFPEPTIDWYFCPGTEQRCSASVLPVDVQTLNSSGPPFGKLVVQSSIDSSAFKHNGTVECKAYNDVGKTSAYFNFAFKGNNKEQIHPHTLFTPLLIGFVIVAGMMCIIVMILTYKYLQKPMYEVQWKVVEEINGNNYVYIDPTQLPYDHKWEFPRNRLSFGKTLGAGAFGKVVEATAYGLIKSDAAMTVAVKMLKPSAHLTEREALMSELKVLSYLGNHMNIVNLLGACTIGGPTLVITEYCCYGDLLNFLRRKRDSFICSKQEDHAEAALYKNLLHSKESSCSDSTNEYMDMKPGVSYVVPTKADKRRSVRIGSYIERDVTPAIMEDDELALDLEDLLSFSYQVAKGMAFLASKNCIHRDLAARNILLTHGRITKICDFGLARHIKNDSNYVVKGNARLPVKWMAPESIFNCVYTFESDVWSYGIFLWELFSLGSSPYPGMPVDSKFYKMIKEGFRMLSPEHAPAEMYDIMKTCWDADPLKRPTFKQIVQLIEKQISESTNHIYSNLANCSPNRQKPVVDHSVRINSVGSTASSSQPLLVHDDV
Chain of PIK3CA (human), P42336 [E542K] (P42336 whole entry E542K, looked up): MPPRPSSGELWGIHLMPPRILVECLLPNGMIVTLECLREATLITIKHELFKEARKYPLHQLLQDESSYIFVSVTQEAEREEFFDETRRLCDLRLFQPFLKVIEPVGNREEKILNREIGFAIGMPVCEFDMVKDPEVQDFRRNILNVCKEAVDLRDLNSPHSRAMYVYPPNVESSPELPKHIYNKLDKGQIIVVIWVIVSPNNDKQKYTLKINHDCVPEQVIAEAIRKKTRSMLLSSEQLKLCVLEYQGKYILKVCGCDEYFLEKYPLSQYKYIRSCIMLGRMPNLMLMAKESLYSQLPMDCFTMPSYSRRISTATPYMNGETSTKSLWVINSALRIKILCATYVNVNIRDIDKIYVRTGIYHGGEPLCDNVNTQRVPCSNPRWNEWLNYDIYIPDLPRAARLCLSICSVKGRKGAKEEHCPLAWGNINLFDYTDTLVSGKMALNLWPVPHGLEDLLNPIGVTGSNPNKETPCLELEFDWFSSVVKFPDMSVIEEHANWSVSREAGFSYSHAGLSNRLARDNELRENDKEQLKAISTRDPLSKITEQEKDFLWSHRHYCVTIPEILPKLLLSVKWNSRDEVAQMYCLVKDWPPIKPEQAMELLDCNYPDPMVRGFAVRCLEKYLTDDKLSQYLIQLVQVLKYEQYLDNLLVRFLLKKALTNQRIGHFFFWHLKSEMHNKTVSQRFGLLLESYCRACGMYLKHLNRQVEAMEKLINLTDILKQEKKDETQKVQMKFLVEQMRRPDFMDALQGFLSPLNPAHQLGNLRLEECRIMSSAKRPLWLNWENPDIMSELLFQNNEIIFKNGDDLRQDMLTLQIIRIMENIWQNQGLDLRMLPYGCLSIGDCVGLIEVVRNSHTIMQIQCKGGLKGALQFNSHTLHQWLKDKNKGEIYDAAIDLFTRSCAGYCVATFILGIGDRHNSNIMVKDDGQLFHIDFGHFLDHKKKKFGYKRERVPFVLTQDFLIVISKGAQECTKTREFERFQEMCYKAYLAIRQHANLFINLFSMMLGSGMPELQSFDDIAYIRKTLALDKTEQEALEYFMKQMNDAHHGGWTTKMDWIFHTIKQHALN
Chain of ABL1 (human), P00519 [F317L] (P00519 whole entry F317L, looked up): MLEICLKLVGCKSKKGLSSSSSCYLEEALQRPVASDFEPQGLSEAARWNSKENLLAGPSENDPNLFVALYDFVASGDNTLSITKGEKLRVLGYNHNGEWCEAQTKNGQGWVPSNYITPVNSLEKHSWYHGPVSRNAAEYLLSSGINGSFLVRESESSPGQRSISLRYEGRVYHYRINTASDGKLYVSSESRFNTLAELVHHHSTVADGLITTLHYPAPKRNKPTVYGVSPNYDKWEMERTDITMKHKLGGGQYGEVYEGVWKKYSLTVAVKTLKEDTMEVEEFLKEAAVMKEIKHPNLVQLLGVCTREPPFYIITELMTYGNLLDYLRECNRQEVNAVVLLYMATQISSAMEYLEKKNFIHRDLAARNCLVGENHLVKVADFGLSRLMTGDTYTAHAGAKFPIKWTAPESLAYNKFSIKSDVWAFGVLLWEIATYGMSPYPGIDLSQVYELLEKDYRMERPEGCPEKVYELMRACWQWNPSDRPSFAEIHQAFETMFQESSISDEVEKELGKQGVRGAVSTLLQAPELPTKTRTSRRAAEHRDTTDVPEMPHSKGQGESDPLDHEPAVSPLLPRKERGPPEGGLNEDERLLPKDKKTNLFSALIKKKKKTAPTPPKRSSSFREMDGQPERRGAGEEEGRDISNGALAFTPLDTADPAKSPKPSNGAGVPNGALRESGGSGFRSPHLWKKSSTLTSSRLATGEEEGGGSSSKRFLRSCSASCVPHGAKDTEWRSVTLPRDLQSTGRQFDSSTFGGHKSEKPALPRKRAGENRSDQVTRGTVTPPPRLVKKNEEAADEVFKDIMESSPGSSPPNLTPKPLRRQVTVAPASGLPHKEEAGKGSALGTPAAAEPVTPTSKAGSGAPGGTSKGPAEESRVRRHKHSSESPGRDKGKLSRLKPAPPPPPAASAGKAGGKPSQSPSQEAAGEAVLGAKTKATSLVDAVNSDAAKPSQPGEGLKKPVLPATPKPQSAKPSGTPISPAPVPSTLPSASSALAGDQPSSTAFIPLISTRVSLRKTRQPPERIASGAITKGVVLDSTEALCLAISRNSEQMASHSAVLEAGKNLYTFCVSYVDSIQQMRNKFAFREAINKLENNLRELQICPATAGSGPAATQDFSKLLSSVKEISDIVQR
Chain of KIT (human), P10721 [A829P] (P10721 whole entry A829P, looked up): as the sequence (P10721 whole entry D816H, looked up) above, with H816D, A829P counted along it
Chain of PIK3CA (human), P42336 [M1043I] (P42336 whole entry M1043I, looked up): as the sequence (P42336 whole entry E542K, looked up) above, with K542E, M1043I counted along it
Chain of ABL1 (human), P00519 [F317I] (P00519 whole entry F317I, looked up): as the sequence (P00519 whole entry F317L, looked up) above, with L317I counted along it
Chain of BMX (human), P51813 [V600E] (P51813 whole entry, looked up, stated change not applied): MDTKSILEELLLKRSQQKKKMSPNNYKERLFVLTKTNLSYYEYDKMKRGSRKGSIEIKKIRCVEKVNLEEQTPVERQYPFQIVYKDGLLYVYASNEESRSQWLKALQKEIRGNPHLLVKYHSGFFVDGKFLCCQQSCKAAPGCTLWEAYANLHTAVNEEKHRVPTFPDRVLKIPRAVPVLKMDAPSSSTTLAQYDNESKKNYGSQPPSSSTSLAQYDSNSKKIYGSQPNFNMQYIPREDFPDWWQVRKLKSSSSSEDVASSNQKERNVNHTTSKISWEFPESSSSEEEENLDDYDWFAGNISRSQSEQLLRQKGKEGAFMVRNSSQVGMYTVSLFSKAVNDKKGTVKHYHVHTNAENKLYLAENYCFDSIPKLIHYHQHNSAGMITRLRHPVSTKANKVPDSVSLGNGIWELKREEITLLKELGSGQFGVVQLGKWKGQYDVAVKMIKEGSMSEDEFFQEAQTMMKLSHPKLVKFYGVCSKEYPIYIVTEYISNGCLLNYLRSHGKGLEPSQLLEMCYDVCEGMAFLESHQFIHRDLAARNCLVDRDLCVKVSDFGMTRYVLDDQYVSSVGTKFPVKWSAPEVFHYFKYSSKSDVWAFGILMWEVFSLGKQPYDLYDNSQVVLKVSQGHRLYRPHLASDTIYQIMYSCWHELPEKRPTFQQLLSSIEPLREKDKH
Chain of PIK3CA (human), P42336 [H1047L] (P42336 whole entry H1047L, looked up): as the sequence (P42336 whole entry E542K, looked up) above, with K542E, H1047L counted along it

Row | Compound | kinase still bound, per cent of control [1] [%] | kinase still bound, per cent of control [2] [%] | kinase still bound, per cent of control [3] [%] | kinase still bound, per cent of control [4] [%] | kinase still bound, per cent of control [5] [%] | kinase still bound, per cent of control [6] [%] | kinase still bound, per cent of control [7] [%] | kinase still bound, per cent of control [8] [%] | kinase still bound, per cent of control [9] [%] | kinase still bound, per cent of control [10] [%] | kinase still bound, per cent of control [11] [%] | kinase still bound, per cent of control [12] [%] | kinase still bound, per cent of control [13] [%] | kinase still bound, per cent of control [14] [%] | kinase still bound, per cent of control [15] [%] | kinase still bound, per cent of control [16] [%]
1 | Cc1n[nH]c2ccc(-c3cncc(OC[C@@H](N)Cc4c[nH]c5ccccc45)c3)cc12 | 100 | 12 | 100 | 100 | 0.2 | 100 |  |  |  |  |  |  |  |  |  | 
2 | CC[C@@H]1C(=O)N(C)c2cnc(Nc3ccc(C(=O)NC4CCN(C)CC4)cc3OC)nc2N1C1CCCC1 | 100 | 100 | 100 | 100 | 100 | 100 |  |  |  |  |  |  |  |  |  | 
3 | CNC(=O)c1ccc(Nc2cc(Nc3ccccc3S(=O)(=O)C(C)C)c3cc[nH]c3n2)nc1 | 100 | 0.2 | 30 | 28 | 0.1 | 20 | 100 | 100 | 100 |  |  |  |  |  |  | 
4 | Cn1c(=O)n(-c2ccc(C(C)(C)C#N)cc2)c2c3cc(-c4cnc5ccccc5c4)ccc3ncc21 | 100 | 100 | 100 | 100 | 12 | 100 | 100 | 100 | 100 | 2.8 | 4.8 |  |  |  |  | 
5 | Cc1ccc(C(=O)Nc2cccc(C(F)(F)F)c2)cc1Nc1cncc(C(N)=O)c1 | 0.15 | 100 | 13 | 22 | 100 | 100 | 100 | 100 | 100 |  |  |  |  |  |  | 
6 | C=CC(=O)Nc1cccc(Oc2nc(Nc3ccc(N4CCN(C)CC4)cc3OC)ncc2Cl)c1 | 100 | 100 | 100 | 100 | 0.8 | 100 | 0.05 | 0.35 | 0.1 |  |  |  |  |  |  | 
7 | CCN1CCN(C(=O)Cc2ccc(Nc3ncc(F)c(Nc4ccc(C(=O)Nc5ccccc5Cl)cc4)n3)cc2)CC1 | 43 | 3.2 |  |  | 0.15 | 21 | 11 | 46 | 28 | 84 | 100 | 11 | 25 | 100 | 64 | 53
8 | COc1cc(C(=O)N2CCC(N3CCN(C)CC3)CC2)ccc1Nc1ncc2c(n1)N(C)c1ccccc1C(=O)N2C | 100 | 89 |  |  | 100 | 85 | 78 | 100 | 79 | 77 | 20 | 96 | 100 | 65 | 100 | 5
9 | COc1ccc(N(C(=O)Oc2c(C)cccc2C)c2ccnc(Nc3ccc(N4CCN(C)CC4)cc3)n2)c(OC)c1 | 38 | 85 |  |  | 5.2 | 2.6 | 1 | 0.25 | 0 | 100 | 100 | 5.4 | 44 | 99 | 56 | 84
10 | CCOc1cc2ncc(C#N)c(Nc3ccc(OCc4ccccn4)c(Cl)c3)c2cc1NC(=O)/C=C/CN(C)C | 100 | 100 |  | 100 |  | 100 |  |  |  | 100 | 100 | 47 | 88 | 100 | 100 | 85
11 | COc1cc(N2CCN(C)CC2)ccc1Nc1nc(N)c(C(=O)c2c(Cl)cccc2Cl)s1 | 100 | 100 |  |  | 100 | 100 | 100 | 91 | 100 | 100 | 100 | 100 | 86 | 100 | 81 | 97
12 | C=CC(=O)Nc1ccc(CN(C(=O)Nc2c(Cl)c(OC)cc(OC)c2Cl)c2cc(Nc3ccc(N4CCN(C)CC4)cc3)ncn2)cc1 | 100 | 100 | 100 | 100 | 100 | 1.4 | 0.55 | 0.1 | 0.2 |  |  |  |  |  |  | 
13 | CCN1CCN(Cc2ccc(Nc3ncc4c(n3)N(C)c3ccccc3C(=O)N4C)cc2C(F)(F)F)CC1 | 100 | 0.9 |  |  | 3.5 | 31 | 79 | 89 | 76 | 24 | 1.8 | 71 | 65 | 15 | 59 | 18
14 | O=C(Nc1cccc(Nc2ncc(Br)c(NCCc3cnc[nH]3)n2)c1)N1CCCC1 | 62 | 0.15 |  |  | 0.1 | 0.8 | 41 | 24 | 65 | 100 | 59 | 4.6 | 11 | 95 | 28 | 8.4
15 | COc1cc2ncnc(-n3nc(-c4ccccn4)nc3N)c2cc1OC | 23 | 54 |  |  | 3.4 | 100 | 44 | 24 | 55 | 48 | 17 | 44 | 12 | 36 | 33 | 41
16 | COc1cc(C(=O)NC2CCN(C)CC2)ccc1Nc1ncc2c(n1)N(C1CCCC1)C(C)CC(=O)N2C (configuration not stated) | 100 | 100 | 100 | 100 | 100 | 100 | 100 | 100 | 100 |  |  |  |  |  |  | 
